Patent publication US20140072990A1, “FLUORESCENT SUBSTRATE FOR DETECTION OF ENZYMATIC ACTIVITY OF NITRILE-RELATED ENZYME” (The University of Tokyo, priority 2010, published 2014)
Like-named read-outs stand apart in the source and are kept apart here. Each block holds one compound with its values, some of them ahead of it.

What was measured:
[1] = Fluorescence quantum yield, absolute PL quantum yield measurement system (Quantaurus-QY); assay type: physicochemical; conditions: 0.2 μM, 0.02% DMSO, 200 mM sodium phosphate buffer pH 7.3, 470 nm excitation light
Procedure: The absorption spectra and fluorescence quantum yields of the compounds were measured as follows.
A 1 mM solution of compound 7 in DMSO was prepared and this solution was added to 200 mM sodium phosphate buffers of pH 2 to 12 to prepare 1 μM sample solutions containing 0.1% DMSO. These sample solutions were measured for their absorption spectra between 300 nm and 600 nm with an ultraviolet and visible spectrophotometer UV-2450 (Shimadzu Corporation, Japan). In addition, a 0.2 μM sample solution of compound 7 containing 0.02% DMSO in 200 mM sodium phosphate buffer (pH 7.3) was prepared and measured for its fluorescence quantum yield using an absolute PL quantum yield measurement system, Quantaurus-QY (Hamamatsu Photonics K.K., Japan), under irradiation with 470 nm excitation light.

[2] = target: T1, Rhodococcus rhodochrous strain J1-derived nitrile hydratase (Rhodococcus rhodochrous, UniProt P21219+P21220); test: Detection of nitrile hydratase-catalyzed enzymatic reaction using fluorometer (Example 5); assay type: biochemical; conditions: for increase in fluorescence in comparison with a solution not containing the cell-free extract: crude nitrile hydratase solution, 37° C., 5 h after addition, 490 nm excitation light
T1 construct: made in house; host or cells: Rhodococcus rhodochrous ATCC12674 transformed with pSJ034; crude cell-free extract
T1 sequence (P21219 1-203): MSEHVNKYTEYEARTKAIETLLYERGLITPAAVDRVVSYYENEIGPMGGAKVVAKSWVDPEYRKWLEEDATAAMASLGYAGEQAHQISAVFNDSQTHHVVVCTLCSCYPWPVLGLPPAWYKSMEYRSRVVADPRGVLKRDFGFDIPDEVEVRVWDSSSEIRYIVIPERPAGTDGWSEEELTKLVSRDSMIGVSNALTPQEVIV
T1 sequence (P21220 1-229): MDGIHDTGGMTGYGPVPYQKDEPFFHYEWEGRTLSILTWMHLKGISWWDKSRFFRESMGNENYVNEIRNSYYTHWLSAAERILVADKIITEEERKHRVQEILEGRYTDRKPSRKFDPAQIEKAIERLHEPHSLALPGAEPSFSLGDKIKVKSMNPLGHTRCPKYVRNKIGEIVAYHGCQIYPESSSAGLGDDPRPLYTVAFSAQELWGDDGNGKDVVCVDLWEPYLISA
Procedure: Nitrile hydratase solution was prepared in the same manner as shown in Example 2.
(§1) 178 μL of sodium phosphate buffer (200 mM, pH 7.3) and 2 μL of 1 mM fluorescent substrate (compound 7 or compound 2: dissolved in DMSO) were mixed together and pre-incubated at 37° C. The cell-free extract prepared above (20 μL) was added to initiate the reaction. Sampling was conducted at one hour intervals by addition of 380 μL sodium phosphate buffer (200 mM, pH 7.3) to 20 μL reaction solution, and each sample was measured for its fluorescence using a spectrophotofluorometer, model F-4500 (Hitachi High-Technologies Corporation, Japan). The measurement was performed with 490 nm excitation light under the following conditions: a slit width of 2.5 nm/2.5 nm, a photomultiplier voltage of 700 V and 37° C.

[3] = tested on: Rhodococcus sp. strain SK92-derived nitrilase; test: Detection of nitrilase-catalyzed enzymatic reaction using fluorometer (Example 6); assay type: biochemical
Procedure: as §1
Nitrilase solution was prepared in the same manner as shown in Example 3.
Detection was conducted in accordance with the procedures shown in Example 5, provided that the compound used in the experiment was compound 7 and the enzyme solutions used were a cell-free extract derived from JM109/pSK002 (containing nitrilase) and a cell-free extract derived from the above control strain JM109/pTrc99A (having no nitrilase activity).

[4] = tested on: Rhodococcus sp. strain SK92-derived nitrilase; test: HPLC analysis on nitrilase-catalyzed reaction solution (Example 6); assay type: biochemical
Procedure: (§2) After reaction at 37° C. for 5 hours as described above, the reaction solution was analyzed by HPLC under the following conditions. • Model: fluid delivery pump PU-2080 (JASCO) • Column: Inertsil ODS-3 (4.6×250 mm) column (GL Sciences Inc.) • Solvent: eluted with a linear gradient from 75% acetonitrile/0.1% TFA in water (0 min) to 15% acetonitrile/0.1% TFA in water (30 min) • Detection: detector MD-2010 (JASCO), monitored by absorption at 500 nm
Nitrilase activity was analyzed in accordance with the procedures shown in Example 4.

[5] = target: T1, Rhodococcus rhodochrous strain J1-derived nitrile hydratase; test: HPLC analysis on nitrile hydratase-catalyzed reaction solution (Example 5); assay type: biochemical; conditions: 37° C., 5 hours, absorption at 500 nm
Procedure: as §2

[6] = Stability of product in nitrile hydratase-catalyzed reaction solution by HPLC (Example 7); assay type: in vitro ADME; conditions: absorption at 500 nm
Procedure: (§3) Product stability after enzymatic reaction was studied by HPLC analysis.
(§4) For HPLC analysis of the nitrile hydratase-catalyzed reaction solution (160 μL), the above pump, column, solvent conditions and detector were used to monitor absorption at 500 nm. On the other hand, for analysis of the nitrilase-catalyzed reaction solution (160 μL), the same procedure as used for analysis of the nitrile hydratase-catalyzed reaction solution was repeated to monitor absorption at 500 nm.

[7] = Fluorescence quantum yield measurement of compounds 1 to 6; assay type: physicochemical
Procedure: Compounds 1 to 6 obtained above were measured for their fluorescence.
Compounds 1 to 6 were also measured for their fluorescence quantum yield (Φfl). […] With respect to compounds 5 and 6, it should be noted that their fluorescence quantum yields were calculated as values in isolated form based on the concentration ratio determined by HPLC.

[8] = Stability of product in nitrilase-catalyzed reaction solution by HPLC (Example 7); assay type: in vitro ADME; conditions: absorption at 500 nm
Procedure: as §3, §4

[9] = tested on: Rhodococcus sp. strain SK92-derived nitrilase; test: Nitrilase-catalyzed reaction with cell-free extract, detection with fluorescence imager (Example 3); assay type: biochemical; conditions: 30° C., 1 hour, excited at 488 nm, detected at 530 nm; JM109/pUC118 control showed no change
Procedure: (§5) 10 μL of sodium phosphate buffer (pH 7.0), 75 μL of sterilized water and 5 μL of 0.01 mM nitrile fluorescent substrate (compound 2: dissolved in 10% DMSO) were mixed together and pre-incubated at 30° C. The cell-free extract prepared above (10 μL) was added to initiate the reaction. After the reaction at 30° C. for 1 hour, the mixture was transferred to a 96-well microplate and fluorescence was detected with a fluorescence imager (BioRad Pharos FX molecular Imager, excited at 488 nm, detected at 530 nm).
A recombinant E. coli, JM109/pSK002, which highly expresses Rhodococcus sp. strain SK92-derived nitrilase (JP 8-173169 A) was inoculated into 1 ml of a 50 ampicillin-containing LB medium (1% Bactotryptone, 0.5% Bactoyeast extract, 0.5% NaCl) and pre-cultured at 37° C. for 7 hours. The culture broth was taken in a volume of 0.1 ml and added to 100 ml of the same medium (containing 50 μg/ml ampicillin and 1 mM IPTG), followed by shaking culture at 37° C. for 15 hours. The resulting culture broth was centrifuged (3,700×g, 10 minutes, 4° C.) to collect the cells, which were then washed with 10 mM sodium phosphate buffer (pH 7.0) and suspended in the same buffer. As a control strain, JM109/pUC118 was used. […]
In the same manner as shown in Example 2, the reaction was performed using a nitrile fluorescent substrate (compound 2), followed by detection with a fluorescence imager.

[10] = target: T1, Rhodococcus rhodochrous strain J1-derived nitrile hydratase; test: Nitrile hydratase-catalyzed reaction with cell-free extract, detection with fluorescence imager (Example 2); assay type: biochemical; conditions: 30° C., 1 hour, excited at 488 nm, detected at 530 nm; vector pK4 control showed no change
Description: Plasmid pSJ034 designed to constitutively express Rhodococcus rhodochrous strain J1-derived nitrile hydratase in Rhodococcus bacterial cells was introduced into Rhodococcus rhodochrous strain ATCC12674. pSJ034 has been prepared from plasmid pSJ023 as described in the specification of JP 10-337185 A. pSJ023 was deposited as a transformant, R. rhodochrous ATCC12674/pSJ023 (FERM BP-6232), with the International Patent Organism Depositary, the National Institute of Advanced Industrial Science and Technology.
Rhodococcus rhodochrous strain ATCC12674 was transformed with plasmid pSJ034 to prepare ATCC12674/pSJ034. The strain 12674 was also transformed with vector pK4 for use in a control experiment.
The colony was cultured as follows. The colony was inoculated into a kanamycin (50 mg/L)-containing MYK medium (10 ml) and pre-cultured at 30° C. for 24 hours. […]
as §5, with “The cell-free extract prepared above (10 μL) was added to initiate the reaction.” left out

[11] = tested on: Rhodococcus sp. strain SK92-derived nitrilase; test: Nitrilase-catalyzed reaction for 24 hours, observation by the naked eye (Example 4); assay type: biochemical; conditions: 0.1 mM substrate stock, JM109/pUC118 control showed little change in color
Procedure: 10 μL of sodium phosphate buffer (pH 7.0), 75 μL of sterilized water and 5 μL of 0.1 mM nitrile fluorescent substrate (compound 2: dissolved in DMSO) were mixed together and pre-incubated at 30° C. A cell-free extract (10 μL), which had been prepared in the same manner as shown in Example 3, was added to initiate the reaction.

[12] = calculated as values in isolated form based on the concentration ratio determined by HPLC (mixture of compounds 5 and 6)

SMILES: N#Cc1ccc(-c2c3ccc(=O)cc-3oc3cc(O)ccc23)c(C(=O)OCc2ccc(Cl)cc2)c1 [compound 7, 5-cyanofluorescein-4-chlorobenzyl ester]
fluorescence quantum yield [1]: 0.154
increase in fluorescence in comparison with a solution not containing the cell-free extract [2]: ~7.2 fold
increase in fluorescence relative to that of compound 2 ([2]; nitrile hydratase reaction, compound 7 versus compound 2): 1.5 fold
increase in fluorescence in comparison with the absence of the cell-free extract ([3]; JM109/pSK002-derived cell-free extract (containing nitrilase), 5 h after addition): ~7.5 fold
increase in fluorescence with control cell-free extract ([3]; JM109/pTrc99A-derived cell-free extract (having no nitrilase activity)): little increase in its fluorescence
HPLC peak of substrate after nitrilase-catalyzed reaction ([4]; JM109/pSK002-derived cell-free extract, absorption at 500 nm): disappeared, while a peak of a new product generated by the enzymatic reaction appeared
reaction product by HPLC with control cell-free extract ([4]; JM109/pTrc99A-derived cell-free extract): no reaction product was observed
HPLC peak of substrate after nitrile hydratase-catalyzed reaction [5]: disappeared, while a peak of a new product generated by the enzymatic reaction appeared

SMILES: NC(=O)c1ccc(-c2c3ccc(=O)cc-3oc3cc(O)ccc23)c(C(=O)OCc2ccc(Cl)cc2)c1 [compound 9, 5-CONH2 fluorescein 4-chlorobenzyl ester]
HPLC peak corresponding to ester hydrolysis product 5-CONH2 fluorescein [6]: not observed

SMILES: O=C(O)c1ccc(-c2c3ccc(=O)cc-3oc3cc(O)ccc23)c(C(=O)OCc2ccc(Cl)cc2)c1 [compound 11]
HPLC peak corresponding to ester hydrolysis product 5-carboxylfluorescein [8]: not observed

SMILES: COC(=O)c1cc(C#N)ccc1-c1c2ccc(=O)cc-2oc2cc(O)ccc12 [compound 2]
change in intensity of fluorescence with nitrilase-expressing recombinant cell-free extract [9]: significant increase in the intensity of fluorescence
change in intensity of fluorescence with nitrile hydratase-expressing recombinant cell-free extract [10]: significant increase in the intensity of fluorescence
fluorescence quantum yield [1]: 0.172
Fluorescence quantum yield (Φf1) [7]: 0.161
fluorescence observed by the naked eye with nitrilase-expressing recombinant cell-free extract [11]: significant green fluorescence was observed
increase in fluorescence in comparison with a solution not containing the cell-free extract [2]: ~3.9 fold

The remaining lines, values ahead:

Fluorescence quantum yield (Φf1) [7]: 0.018
SMILES: COC(=O)c1ccc(C(N)=O)cc1-c1c2ccc(=O)cc-2oc2cc(O)ccc12 [compound 3]

Fluorescence quantum yield (Φf1) [7]: 0.007
SMILES: COC(=O)c1ccc(C#N)cc1-c1c2ccc(=O)cc-2oc2cc(O)ccc12 [compound 1]

Fluorescence quantum yield (Φf1) [7]: 0.397
SMILES: COC(=O)c1cc(C(N)=O)ccc1-c1c2ccc(=O)cc-2oc2cc(O)ccc12 [compound 4]

Fluorescence quantum yield (Φf1) [7, 12]: 0.565
SMILES: COC(=O)c1cc(C(=O)O)ccc1-c1c2ccc(=O)cc-2oc2cc(O)ccc12 [compound 6]

Fluorescence quantum yield (Φf1) [7, 12]: 0.0729
SMILES: COC(=O)c1ccc(C(=O)O)cc1-c1c2ccc(=O)cc-2oc2cc(O)ccc12 [compound 5]
